Measured values as given in patent publication US20260097060A1, “PHARMACEUTICAL COMPOSITION COMPRISING ENAVOGLIFLOZIN FOR PREVENTING OR TREATING CARDIOVASCULAR AGING DISEASES” (DAEWOONG PHARMACEUTICAL CO., LTD., priority 2022, published 2026).
Blank lines part the entries; values can stand above or below the compound they belong to.

Columns and labels:
[1] = tested on: porcine coronary artery rings; assay: Evaluation of vascular function (bradykinin-induced relaxation of coronary artery rings, organ chamber); settings: for bradykinin concentration at which vasorelaxation was significantly increased compared to nanoplastics alone: nanoplastics + 1 μM test drug
Experimental: Vascular endothelial cells play an important role in maintaining vascular homeostasis, but senescence is known to cause vascular dysfunction. Therefore, vascular reactivity of vascular endothelial cells was evaluated to see whether enavogliflozin prevents vascular dysfunction caused by the exposure to nanoplastics. In addition, the evaluation was performed together with the competing material, empagliflozin, and thus their effects were compared.
Specifically, the left anterior descending coronary artery of the porcine heart was resected into rings with a size of 2 to 3 mm. An experiment was conducted with a control, a group treated with 10 µg/mL of nanoplastics, groups treated with […] of nanoplastics+different concentrations of enavogliflozin (0.01, 0.1, and 1 μM), and a group treated with 10 µg/mL of nanoplastics+[…] empagliflozin. The coronary artery rings were placed in Crabb's solution at 37° C. in an organ chamber (95% 02, 5% CO2) to measure changes in isometric tension. The viability of each coronary ring was confirmed by constant […] loading at 5 g for 90 minutes and repeated contractions with up to 80 mM KCl. After washing for 30 minutes, the coronary artery rings were constricted to approximately 80% (maximum contraction) using the thromboxane mimetic U46619 and treated with bradykinin. The relaxation rate of blood vessels in relation to the concentration of bradykinin was then calculated. The results are shown in the graph of FIG. 10.
For statistical data analysis, Prism 5.03 software (GraphPad Software Inc., San Diego, CA, USA) was used. The test results are expressed as the mean±standard error of the mean (SEM). The statistical method was to conduct a two-way ANOVA to verify the difference between groups, and a post hoc test for each type was performed using the verification method with the Bonferroni function. The significance level was set to be p<0.05.
Bradykinin is a biomaterial, and when a bradykinin receptor is activated, endothelial nitric oxide synthase (eNOS) is activated, releasing nitric oxide (NO) and relaxing blood vessels.

eNOS = assay: Measurement of expression of eNOS (western blot); format: cell-based, porcine; settings: nanoplastics + enavogliflozin 0.01, 0.1 and 1 μM, 24 hours
Experimental: Reduced eNOS expression is a common feature in endothelial senescence, and is known to cause endothelial dysfunction. Here, the expression of eNOS was measured, thereby confirming that enavogliflozin improves the damage to the endothelial function caused by the exposure to nanoplastics.
Specifically, the cells were seeded at 1×10^5 cells/well in a 6-well plate. The cells were cultured in DMEM containing 10% FBS, penicillin (100 U/mL), streptomycin (100 U/mL), and fungizone ([…]) in a CO2 incubator at 37° C. […]
To lyse the porcine coronary artery endothelial cells, 1×RIPA buffer was added to each well and the cells were lysed for 10 minutes. […] Protein quantification of the obtained cell lysate was measured using Bio-Rad DC protein reagent. […]
After eNOS (1:1,000) and 3-actin (1:1,000) as primary antibodies were reacted at 4° C. for 24 hours, the resulting product was washed 3 to 5 times with 1×TBS-T buffer for 10 minutes. […] Protein bands were treated with an ECL solution and detected using Amersham imager 680.
(§1) For statistical data analysis, Prism 5.03 software (GraphPad Software Inc., San Diego, CA, USA) was used. The test results are expressed as the mean±standard error of the mean (SEM). […]

[2] = tested on: reactive oxygen species (ROS); assay: Evaluation of oxidative stress (ROS, DCF-DA and DHE fluorescence); format: cell-based, porcine; settings: 10 µg/mL nanoplastics + enavogliflozin 0.01, 0.1 and 1 μM
Experimental: Oxidative stress was measured using dihydroethidium (DHE) and 2′,7′-dichlorodihydrofluorescein diacetate (DCF-DA).
Specifically, porcine coronary artery endothelial cells were seeded at 1×10^4 cells/well in a black 96-well plate. The cells were divided into a control, a group treated with 10 µg/mL of nanoplastics, and groups treated with 10 µg/mL of the nanoparticles+different concentrations of enavogliflozin (0.01, 0.1, and 1 μM) to perform the experiment. The cells were incubated in DMEM containing 10% FBS, penicillin (100 U/mL), streptomycin (100 U/mL), and fungizone ([…]) in a CO2 incubator at 37° C. After 24-hour incubation, the amount of reactive oxygen species (ROS) produced was measured by fluorescent absorbance (excitation/emission 485/535 nm).
To measure the ROS produced also in the coronary artery rings, the coronary artery rings were treated with samples for each group, and immersed in a frame containing an OCT solution (Leica Biosystems) and frozen in liquid nitrogen. The frozen result was cut into […] sections using a cryotome, and the sections were stained with DHE (10 μM) and incubated at 37° C. for 45 minutes, washed with PBS, and then observed using a fluorescence microscope.
as §1

[3] = Dissolution test (Korean Pharmacopoeia method 2, paddle method); format: physicochemical
Experimental: Since the dissolution rate of the active ingredient in the pharmaceutical composition affects the maximum blood concentration (Cmax) and the blood concentration-area under the blood concentration-time curve (AUC) when administering the drug, to achieve appropriate Cmax and AUC, it is important to adjust the dissolution rate of the pharmaceutical composition. Since enavogliflozin has a Tmax of 1 to 2 hours, the drug absorption rate in the stomach is considered important. The above dissolution rate was measured under the condition of the dissolved solution 1.2 in accordance with the dissolution test method 2 of the Korean Pharmacopoeia (paddle method). For specific conditions, refer to the following experimental examples.

[4] = tested on: Nox2 and p22phox, membrane catalytic subunits of NADPH oxidase; assay: Expression of oxidative stress-associated markers (western blot); format: cell-based, porcine; settings: nanoplastics + enavogliflozin 0.01, 0.1 and 1 μM, 24 hours
Experimental: In the porcine coronary artery endothelial cells, it is known that NADPH oxidase produces a peroxide in endothelial cells to cause cellular senescence and endothelial dysfunction. Oxidative stress in cells was assessed by measuring the expression of Nox2 and p22phox, which are membrane catalytic subunits of the NAPDH oxidase.
(§2) Specifically, the cells were seeded at 1×10^5 cells/well in a 6-well plate. The cells were incubated in DMEM containing 10% FBS, penicillin (100 U/mL), streptomycin (100 U/mL), and fungizone ([…]) in a CO2 incubator at 37° C. The cells were divided into a control, a group treated with 10 µg/mL of nanoplastics, and groups treated with nanoplastics+different concentrations of enavogliflozin (0.01, 0.1, and 1 μM), treated with a sample, and then incubated for 24 hours.
To lyse the porcine coronary artery endothelial cells, 1×RIPA buffer was added to each well and the cells were lysed for 10 minutes. The cells were scraped with a scraper and centrifuged at 14,000 rpm and 4° C. for 15 minutes. Protein quantification of the obtained cell lysate was measured using Bio-Rad DC protein reagent. Analysis was performed by equally loading […] of protein. […]
as §1

[5] = tested on: cellular senescence markers p53 and p21; assay: Expression of endothelial cell senescence markers (western blot); format: cell-based, porcine; settings: nanoplastics + enavogliflozin 0.01, 0.1 and 1 μM, 24 hours
Experimental: The expression of cellular senescence markers p53 and p21 was confirmed in porcine coronary artery endothelial cells.
as §2, with “were cultured” for “were incubated”, “10 μg/mL” for “10 µg/mL”, “with the nanoparticles+different” for “with nanoplastics+different”, “μM), and then the cells were” for “μM),”, “with samples” for “with a sample,”, “and” for “and then”
To lyse the porcine coronary artery endothelial cells, 1×RIPA buffer was added to each well and the cells were lysed for 10 minutes. The cells were scraped with a scraper and centrifuged at 14,000 rpm and 4° C. for 15 minutes. Protein quantification of the obtained cell lysate was measured using Bio-Rad DC protein reagent. Analysis was performed by equally loading 15 g of protein.
After reacting with p53 (1:1,000), p21 (1:1,000), and β-actin (1:1,000) as primary antibodies at 4° C. for 24 hours, the cells were washed 3 to 5 times with 1×TBS-T buffer for 10 minutes. […]
as §1

Pharmacokinetics (Tmax) = format: in vivo; settings: blood, oral
[6] = tested on: porcine coronary artery endothelial cells; assay: Evaluation of cell proliferation effect (MTS); format: cell-based; settings: nanoplastics + enavogliflozin 0.01, 0.1 and 1 μM, 24 hours, vs nanoplastics
Experimental: Cell cycle arrest is one of the main features of cellular senescence. It was confirmed whether enavogliflozin could improve decreased proliferation of endothelial cells, that is, cellular senescence, caused by the exposure to nanoplastics.
Specifically, after extracting the porcine coronary artery, the porcine coronary artery was treated with collagenase for 20 minutes and centrifuged to obtain coronary artery endothelial cells. The cells were seeded at 1×10^4 cells/well in a 96-well plate. The cells were incubated in DMEM containing 10% FBS, penicillin (100 U/mL), streptomycin (100 U/mL), and fungizone ([…]) in a 5% CO2 incubator at 37° C. The cells were divided into a control, a group treated with 10 µg/mL of nanoplastics, and groups treated with the nanoparticles+different concentrations of enavogliflozin (0.01, 0.1, and 1 μM) to perform the experiment, and the cell proliferation effect was measured using a CellTiter 96 Aqueous One Solution Cell Proliferation Assay (Promega Corporation, USA) kit. Samples were treated and incubated for 24 hours, and treated with an MTS tetrazolium solution (20 μL/well) to allow a reaction for 3 hours, and then absorbance was measured at 490 nm using an Enspire Multilabel Reader (Perkin Elmer Ltd.).
For statistical data analysis, Prism 5.03 software (GraphPad Software Inc., San Diego, CA, USA) was used. […]

[7] = tested on: porcine coronary artery rings and coronary artery-derived endothelial cells; assay: Evaluation of β-galactosidase (SA-β-Gal) activity (X-gal staining); format: cell-based; settings: 10 µg/mL nanoplastics + enavogliflozin 0.01, 0.1 and 1 μM, 24 hours, vs nanoplastics
Experimental: Senescence-related β-galactosidase (SA-β-Gal) activity is the characteristic of senescent cells, and used as a histochemical marker for senescence.
Specifically, the porcine coronary artery was cut into a size of 2 to 3 mm to form coronary artery rings. Next, the coronary artery rings were divided into a control, a group treated with 10 µg/mL of nanoplastics, and groups treated with 10 µg/mL of the nanoparticles+different concentrations of enavogliflozin (0.01, 0.1, and 1 μM) to perform the experiment. After 24-hour culture, the cells were fixed with 4% formaldehyde, and stained with an X-gal dye to allow a reaction for one day.
Subsequently, the coronary artery rings were immersed in an optimal cutting temperature (OCT) solution (Leica Biosystems) and cut to 10 μm sections using a cryotome at −25° C. and observed under a microscope. The results are shown in the photograph in FIG. 5. In addition, the evaluation of β-galactosidase activity in endothelial cells derived from the porcine coronary artery is as follows. […]
as §1

Structure (SMILES): OC[C@H]1O[C@@H](c2ccc(Cl)c(Cc3ccc(O[C@H]4CCOC4)cc3)c2)[C@H](O)[C@@H](O)[C@@H]1O [empagliflozin, reference compound]
bradykinin concentration at which vasorelaxation was significantly increased compared to nanoplastics alone [1]: ≥ 30 nM

30-minute dissolution rate ([3]; average particle size of enavogliflozin): less than 80%
Tmax (Pharmacokinetics (Tmax)): 1 to 2 h
Structure (SMILES): OC[C@H]1O[C@@H](c2cc(Cc3ccc(C4CC4)cc3)c(Cl)c3c2CCO3)[C@H](O)[C@@H](O)[C@@H]1O [enavogliflozin]
eNOS expression (eNOS): significantly increase
fluorescence intensity of DCF-DA (ROS production) [2]: significantly decreased
fluorescence intensity of DHE (ROS production) [2]: significantly decreased
5-minute dissolution rate ([3]; average particle size of enavogliflozin greater than 15 m): less than 40 % of the total content of enavogliflozin
expression of Nox2 [4]: significantly decreased in a concentration-dependent manner
expression of p22phox [4]: significantly decreased in a concentration-dependent manner
bradykinin-induced vasorelaxation ([1]; 10 µg/mL nanoplastics + enavogliflozin 0.01, 0.1 and 1 μM, vs nanoplastics alone): significantly increased
bradykinin concentration at which vasorelaxation was significantly increased compared to nanoplastics alone [1]: ≥ 0.3 nM
expression of p21 protein [5]: significantly decreased in a concentration-dependent manner
expression of p53 protein [5]: significantly decreased in a concentration-dependent manner
cell proliferation [6]: improved
β-galactosidase (SA-β-Gal) activity [7]: significantly reduced
